Reference: patent publication US8007994B2, “Compositions and methods of modulating cholesterol metabolism” (The Board of Regents of the University of Texas System, priority 1998, dated 2011)
“Also recorded” adds a separate entry of the source. Like-named read-outs stand apart in the source and are kept apart here.

How the values were obtained:
liver cholesterol [1] = assay: Liver cholesterol in cholesterol-fed Golden Syrian hamsters; assay type: in vivo, Golden Syrian hamster; settings: male hamsters, 0.2% cholesterol diet, 3 or 30 mg/kg body weight, 12 days
Protocol: (§1) Hamsters provide a better animal model for cholesterol metabolism than mice (however, mice offer the advantage that they can be genetically manipulated, for example the LXRα−/− strain). […] Male Syrian Golden hamsters were fed Teklad 7001 diet supplemented with 0.2% cholesterol and vehicle, LG268 (providing 3 or 30 mg/kg body weight) or 2% surfomer. On day 7, they received a gavage dose of [22,23-3H]b-sitostanol (American Radiolabeled Chemicals, St. Louis, Mo.) and [4-14C]cholesterol (Amersham) for the measurement of cholesterol absorption by the fecal isotope ratio method (Turley et al., 1994). Stools were collected from the individually housed hamsters over the next 72 hours. On day 12 the animals were sacrificed and liver was removed for cholesterol determination by gas chromatography (Turley et al., 1994). […] Therefore the effects of LG268 on cholesterol homeostasis are not limited to mice, but observed in other mammalian species as well.

ACAT-1 mRNA = assay: Northern analysis of duodenal intestine samples, ACAT-1; assay type: in vivo, mouse; settings: duodenum of treated mice, 10 days
Excerpt: (§2) It is known that exogenous cholesterol is taken up in the distal duodenum (and perhaps proximal jejunum) by the intestinal enterocyte, is rapidly esterified (by ACAT) and packaged into chylomicrons for transport into the lymphatic system (reviewed by Homan and Krause, 1997). Recently, caveolin has also been proposed to play a role in cholesterol trafficking in the intestine (Field et al., 1998). Disruption of any of these processes could result in diminished cholesterol absorption capacity. As LG268 is an agonist of the nuclear hormone receptor RXR, it is likely that the primary targets of this drug would be transcriptionally regulated and show a change in the steady state level of mRNA for critical target genes. Northern analyses were performed on duodenal intestine samples obtained in the experiment described in FIG. 4. Results were quantitated using a phosphoimager (Molecular Dynamics), standardized against b-actin controls, and mathematically adjusted to yield 1 unit for the vehicle-treated control group.

cholesterol biosynthesis = assay: Rates of sterol synthesis in vivo ([3H]water incorporation); design: species or system mouse; settings: mice, 0.2% cholesterol diet, 7 days
Protocol: Male, A129 mice were fed Teklad 7001 diet supplemented with 0.2% cholesterol and vehicle or LG268 (at 3 or 30 mg/kg body weight) for 7 days ad libitum. Rates of sterol synthesis were measured in vivo as described (Jeske and Dietschy, 1980, Turley et al., 1981) based on the incorporation of [^3H]water into digitonin-precipitable sterols over one hour.

RXR = settings: cited from earlier work
total lipid absorption = assay: Total lipid absorption determined gravimetrically in mice; assay type: in vivo, mouse
Protocol: Total lipid absorption was determined in the study described above (FIG. 4) to establish whether LG268 effects were specific to cholesterol or were affecting lipid absorption or intestinal integrity. Total lipid absorption was determined gravimetrically (Schwartz et al., 1998) by establishing lipid intake (amount of food consumed over 72 hours×dietary lipid content) and lipid output (fecal lipid content×quantity of stool collected over the same 72 hours) to calculate the fraction of lipid consumed that was absorbed. […] The gravimetric determination of lipid absorption shown in FIG. 5 confirmed these findings. The reduction in lipid absorption seen in these animals can be accounted for by the reduction in cholesterol uptake (cholesterol comprises ˜5% of the lipid in these diets and is extracted and measured as lipid in these analyses). Therefore, the effects of LG268 are specific for cholesterol absorption.

cholesterol absorption [2] = assay: Cholesterol absorption by the fecal isotope ratio method in hamsters; assay type: in vivo, Golden Syrian hamster; settings: male hamsters, 0.2% cholesterol diet, 3 or 30 mg/kg body weight
Protocol: as §1

ACAT-2 mRNA = assay: Northern analysis of duodenal intestine samples, ACAT-2; assay type: in vivo, mouse; settings: duodenum of treated mice, 10 days
Excerpt: as §2

caveolin mRNA = assay: Northern analysis of duodenal intestine samples, caveolin; assay type: in vivo, mouse; settings: duodenum of treated mice, 10 days
Excerpt: as §2

cholesterol absorption [3] = assay: Cholesterol absorption by the fecal isotope ratio method in mice; assay type: in vivo, mouse
Protocol: Male, A129 strain mice (LXRα+/+ and −/−) were fed Teklad 7001 powdered diet supplemented with 0.2% cholesterol 0.015% LG268 (provides 30 mg/kg body weight), vehicle, or 2% surfomer ad libitum for 10 days. On day 7, mice received a gavage dose of [22,23-3H]b-sitostanol (American Radiolabeled Chemicals, St. Louis, Mo.) and [4-14C]cholesterol (Amersham) for the measurement of cholesterol absorption by the fecal isotope ratio method (Turley et al., 1994). […] In light of the extreme potency of LG268, a dose-response analysis was performed.
Male, A129 strain mice were fed Teklad 7001 powdered diet supplemented with 0.2% cholesterol and various levels of LG268 (providing 1.4 to 30 mg/kg body weight) or vehicle ad libitum for 10 days. On day 7, mice received a gavage dose of [22,23-3H]b-sitostanol (American Radiolabeled Chemicals, St. Louis, Mo.) and [4-14C]cholesterol (Amersham) for the measurement of cholesterol absorption by the fecal isotope ratio method (Turley et al., 1994). Liver cholesterol concentration was determined as by gas chromatography.
Male, A129 strain mice were fed Teklad 7001 powdered diet supplemented with 0.2% cholesterol LG268 or LG721 (to provide 3 mg/kg body weight) ad libitum for 10 days. On day 7, mice received a gavage dose of [22,23-3H]b-sitostanol (American Radiolabeled Chemicals, St. Louis, Mo.) and [4-14C]cholesterol (Amersham) for the measurement of cholesterol absorption by the fecal isotope ratio method (Turley et al., 1994). Liver cholesterol concentration was determined as by gas chromatography.

liver cholesterol [4] = assay: Liver cholesterol accumulation in cholesterol-fed LXRα wild-type and knockout mice; assay type: in vivo, mouse; settings: 0.2% cholesterol diet, 30 mg/kg body weight in diet, 10 days
Protocol: Male, A129 strain mice (LXRα+/+ and −/−) were fed Teklad 7001 powdered diet supplemented with 0.2% cholesterol 0.015% LG268 (provides 30 mg/kg body weight), vehicle, or 2% surfomer (a surfactant polymer that inhibits cholesterol absorption, Turley et al., 1991) ad libitum for 10 days. Animals were sacrificed and a liver aliquot was saponified and extracted and the cholesterol content was determined by gas chromatography using stigmastanol as an internal standard (Turley et al., 1994). Liver cholesterol accumulation was prevented by ingestion of LG268 in both LXRα knockout and wild-type mice. The two most likely mechanisms for this effect are (1) increased cholesterol output by enhanced bile acid production and secretion and/or (2) decreased cholesterol input by diminished cholesterol absorption.
Male, A129 strain mice were fed Teklad 7001 powdered diet supplemented with 0.2% cholesterol and various levels of LG268 (providing 1.4 to 30 mg/kg body weight) or vehicle ad libitum for 10 days. […] Liver cholesterol concentration was determined as by gas chromatography.
Male, A129 strain mice were fed Teklad 7001 powdered diet supplemented with 0.2% cholesterol LG268 or LG721 (to provide 3 mg/kg body weight) ad libitum for 10 days. […] Liver cholesterol concentration was determined as by gas chromatography.

[5] = system: ATP-binding cassette protein-1 (ABC-1); assay: Northern analysis of intestinal ABC-1 expression; assay type: in vivo; settings: mouse small intestine, oral 30 mg/kg body weight, as little as 6 hours
Protocol: The ATP-binding cassette protein-1 is a newly described membrane protein implicated in reverse cholesterol transport, in other words the efflux of cholesterol from peripheral tissues to the liver (Young and Fielding, 1999; Tall, 1998).
Male A129 strain mice were fed Teklad 7001 powdered diet supplemented with 0.2% cholesterol and 0.015% LG268, equimolar LG721 (see example 12) or vehicle at 7 pm (beginning of dark cycle). Animals were sacrificed at 1 am (6 hour time point) or 7 am (12 hr), the intestine was removed and rinsed with ice-cold phosphate buffered saline, then subdivided into 5 segments of equal length (˜8 cm each, FIG. 10A) or 3 segments (the proximal segment representing the duodenumis depicted in FIG. 10B). Intestinal mucosa was obtained from each segment and poly (A+) RNA isolated for northern analyses. Results were quantified using a phosphorimager, standardized against b-actin controls, and mathematically adjusted to yield 1 unit for the vehicle-treated control group.

bile acid production = assay: Bile acid pool size and fecal bile acid excretion in cholesterol-fed mice; assay type: in vivo, mouse; settings: LXRα +/+ and −/− mice, 2% cholesterol diet, 30 mg/kg oral gavage daily, 7 days
Protocol: Female, mixed strain (LXRα+/+ and −/−) mice were fed Teklad 7001 2% cholesterol (w/w) diet ad libitum for 7 days. Each day mice received a single bolus dose of LG268 ([…] to provide 30 mg/kg body weight) or vehicle by oral gavage. Mice were killed and liver cholesterol was determined as described in FIG. 1. Small intestine (with luminal contents) and gall bladder were extracted together to determine bile acid pool size and composition as described by Schwartz et al., 1998. Stools were collected over 3 days from the individually housed mice, dried, weighed and ground. Fecal bile acid content was determined by an enzymatic method (Turley et al., 1996).

## Cc1cc2c(cc1C1(c3ccc(C(=O)O)cn3)CC1)C(C)(C)CCC2(C)C [LG268]
Liver cholesterol [1]
  liver cholesterol: effective in hamsters in reducing liver cholesterol
ACAT-1 mRNA
  ACAT-1 mRNA level: No apparent change
Cholesterol biosynthesis; 3 or 30 mg/kg body weight
  cholesterol biosynthesis: increased cholesterol biosynthesis
Cholesterol biosynthesis; 3 or 30 mg/kg, dose-dependent
  sterol synthesis in spleen, kidney and carcass: Increased synthesis
RXR
  RXR binding and activation: binds and activates RXR
RXR; listed as LG100268
  RXR binding and activation: binds and activates all RXR subtypes
RXR; selectivity
  binding to other related nuclear receptors: fails to exhibit binding
Total lipid absorption; wild-type mice receiving LG268 in diet
  stool output: normal
Total lipid absorption; wild-type mice, 0.2% cholesterol diet, LG268 in diet, 10 days
  general lipid absorption: not experiencing general lipid malabsorption or steattorhea; also recorded: unaffected
Cholesterol absorption [2]
  cholesterol absorption: inhibiting cholesterol absorption
ACAT-2 mRNA
  ACAT-2 mRNA level: No apparent change
Caveolin mRNA
  caveolin mRNA level: No apparent change
Cholesterol absorption [3]; LXRα +/+ and −/− mice, 0.2% cholesterol diet, 30 mg/kg body weight, 10 days, 30 mg/kg
  cholesterol absorption: completely inhibited; also recorded: total block in cholesterol absorption
Cholesterol absorption [3]; mice, LG268 0.015% of diet, dose 130-fold lower than surfomer
  inhibition of cholesterol absorption compared with 2% surfomer: more effective than surfomer
Cholesterol absorption [3]; wild-type mice, 0.2% cholesterol diet, doses 1.4 to 30 mg/kg, 10 days
  lowest effective dose preventing liver cholesterol accumulation by inhibiting cholesterol absorption: 1.4 mg/kg body weight
Liver cholesterol [4]
  liver cholesterol accumulation: prevented
[5]
  ABC-1 expression: greatly increased
Bile acid production
  liver cholesterol accumulation prevented via bile acid production (bile acid pool size and excretion): did not prevent the liver accumulation by increasing bile acid production
